Measurements reported in the NIST ThermoML archive (doi:10.1016/j.jct.2011.08.016).

Assay: xn = mol fraction of the nth substance listed
Settings: Liquid, Vibrating tube method

CCCCCCCCCC [decane] + CCCCCCC
Settings	mass density [kg/m3]
313.18 K, 10000 kPa, x2 = 0.5219	703.05
313.18 K, 10000 kPa, x2 = 0.777	690.24
313.18 K, 10990 kPa, x2 = 0.5219	703.9
313.18 K, 10990 kPa, x2 = 0.777	691.12
313.18 K, 12000 kPa, x2 = 0.5219	704.76
313.18 K, 12000 kPa, x2 = 0.777	692.05
313.18 K, 13000 kPa, x2 = 0.5219	705.6
313.18 K, 13000 kPa, x2 = 0.777	692.92
313.18 K, 14000 kPa, x2 = 0.5219	706.44
313.18 K, 14000 kPa, x2 = 0.777	693.78
313.18 K, 15000 kPa, x2 = 0.5219	707.25
313.18 K, 15000 kPa, x2 = 0.777	694.64
313.18 K, 16000 kPa, x2 = 0.5219	708.05
313.18 K, 16000 kPa, x2 = 0.777	695.5
313.18 K, 17000 kPa, x2 = 0.5219	708.84
313.18 K, 17000 kPa, x2 = 0.777	696.33
313.18 K, 18000 kPa, x2 = 0.5219	709.64
313.18 K, 18000 kPa, x2 = 0.777	697.16
313.18 K, 19000 kPa, x2 = 0.5219	710.37
313.18 K, 19000 kPa, x2 = 0.777	697.97
313.18 K, 20000 kPa, x2 = 0.5219	711.12
313.18 K, 20000 kPa, x2 = 0.777	698.77
313.18 K, 21000 kPa, x2 = 0.5219	711.85
313.18 K, 21000 kPa, x2 = 0.777	699.55
313.18 K, 22000 kPa, x2 = 0.5219	712.53
313.18 K, 22000 kPa, x2 = 0.777	700.31
313.18 K, 23000 kPa, x2 = 0.5219	713.24
313.18 K, 23000 kPa, x2 = 0.777	701
313.18 K, 24000 kPa, x2 = 0.5219	713.92
313.18 K, 24000 kPa, x2 = 0.777	701.71
313.18 K, 25000 kPa, x2 = 0.5219	714.55
313.18 K, 25000 kPa, x2 = 0.777	702.37
323.14 K, 1000 kPa, x2 = 0.5219	687.21
323.14 K, 1000 kPa, x2 = 0.952	662.62
323.14 K, 2000 kPa, x2 = 0.5219	688.12
323.14 K, 2000 kPa, x2 = 0.952	663.72
323.14 K, 3000 kPa, x2 = 0.5219	689.02
323.14 K, 3000 kPa, x2 = 0.952	664.82
323.14 K, 4000 kPa, x2 = 0.5219	689.95
323.14 K, 4000 kPa, x2 = 0.952	665.9
323.14 K, 5000 kPa, x2 = 0.5219	690.88
323.14 K, 5000 kPa, x2 = 0.952	666.98
323.14 K, 6000 kPa, x2 = 0.5219	691.82
323.14 K, 6000 kPa, x2 = 0.952	668.05
323.14 K, 7000 kPa, x2 = 0.5219	692.78
323.14 K, 7000 kPa, x2 = 0.952	669.1
323.14 K, 8000 kPa, x2 = 0.5219	693.71
323.14 K, 8000 kPa, x2 = 0.952	670.14
323.14 K, 9000 kPa, x2 = 0.5219	694.65
323.14 K, 9000 kPa, x2 = 0.952	671.16
323.14 K, 10000 kPa, x2 = 0.5219	695.58
323.14 K, 10000 kPa, x2 = 0.952	672.17
323.14 K, 10990 kPa, x2 = 0.5219	696.5
323.14 K, 10990 kPa, x2 = 0.952	673.16
323.14 K, 12000 kPa, x2 = 0.5219	697.4
323.14 K, 12000 kPa, x2 = 0.952	674.14
323.14 K, 13000 kPa, x2 = 0.5219	698.29
323.14 K, 13000 kPa, x2 = 0.952	675.1
323.14 K, 14000 kPa, x2 = 0.5219	699.17
323.14 K, 14000 kPa, x2 = 0.952	676.05
323.14 K, 15000 kPa, x2 = 0.5219	700.04
323.14 K, 15000 kPa, x2 = 0.952	676.99
323.14 K, 16000 kPa, x2 = 0.5219	700.9
323.14 K, 16000 kPa, x2 = 0.952	677.91
323.14 K, 17000 kPa, x2 = 0.5219	701.74
323.14 K, 17000 kPa, x2 = 0.952	678.82
323.14 K, 18000 kPa, x2 = 0.5219	702.6
323.14 K, 18000 kPa, x2 = 0.952	679.71
323.14 K, 19000 kPa, x2 = 0.5219	703.38
323.14 K, 19000 kPa, x2 = 0.952	680.59
323.14 K, 20000 kPa, x2 = 0.5219	704.18
323.14 K, 20000 kPa, x2 = 0.952	681.45
323.14 K, 21000 kPa, x2 = 0.5219	704.97
323.14 K, 21000 kPa, x2 = 0.952	682.3
323.14 K, 22000 kPa, x2 = 0.5219	705.7
323.14 K, 22000 kPa, x2 = 0.952	683.13
323.14 K, 23000 kPa, x2 = 0.5219	706.43
323.14 K, 23000 kPa, x2 = 0.952	683.92
323.14 K, 24000 kPa, x2 = 0.5219	707.14
323.14 K, 24000 kPa, x2 = 0.952	684.73
323.14 K, 25000 kPa, x2 = 0.5219	707.83
323.14 K, 25000 kPa, x2 = 0.952	685.51
323.15 K, 1000 kPa, x2 = 0.0531	705.96
323.15 K, 1000 kPa, x2 = 0.2594	698.56
323.15 K, 2000 kPa, x2 = 0.0531	706.92
323.15 K, 2000 kPa, x2 = 0.2594	699.45
323.15 K, 3000 kPa, x2 = 0.0531	707.86
323.15 K, 3000 kPa, x2 = 0.2594	700.3
323.15 K, 4000 kPa, x2 = 0.0531	708.79
323.15 K, 4000 kPa, x2 = 0.2594	701.18
323.15 K, 5000 kPa, x2 = 0.0531	709.69
323.15 K, 5000 kPa, x2 = 0.2594	702.06
323.15 K, 6000 kPa, x2 = 0.0531	710.58
323.15 K, 6000 kPa, x2 = 0.2594	702.96
